Data as given in patent publication US11098056B2, “UDP glycosyltransferase inhibitors and methods of use” (GENZYME CORPORATION, priority 2018, dated 2021).
Counter-ions that a name gives are not always drawn.

Target: T1, UGT8 (Homo sapiens, UniProt Q16880)
T1 construct: host or cells: OE19 cells
T1 sequence (Q16880 21-541): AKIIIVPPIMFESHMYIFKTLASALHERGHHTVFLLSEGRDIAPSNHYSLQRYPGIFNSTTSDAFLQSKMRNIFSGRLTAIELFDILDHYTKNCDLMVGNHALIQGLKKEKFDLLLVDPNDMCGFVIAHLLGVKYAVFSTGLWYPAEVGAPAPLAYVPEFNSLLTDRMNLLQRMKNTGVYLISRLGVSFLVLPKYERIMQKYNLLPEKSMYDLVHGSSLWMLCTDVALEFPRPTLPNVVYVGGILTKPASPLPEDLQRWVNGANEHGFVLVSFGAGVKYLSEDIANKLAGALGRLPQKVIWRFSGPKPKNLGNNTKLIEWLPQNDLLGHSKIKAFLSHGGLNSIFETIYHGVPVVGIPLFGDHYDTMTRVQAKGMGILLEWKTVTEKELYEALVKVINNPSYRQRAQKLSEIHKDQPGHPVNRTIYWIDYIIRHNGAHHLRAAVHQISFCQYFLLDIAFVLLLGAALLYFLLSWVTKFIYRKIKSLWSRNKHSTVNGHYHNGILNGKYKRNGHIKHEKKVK
Assay: In vitro sulfatide (SFT) synthesis inhibition in OE19 cells, LC-MS/MS readout
Type: cell-based
Settings: 72 hr, sulfatide by LC-MS/MS, read-out: Potency range (IC50, In-vitro SFT)
Description: For medium throughput screening, library compounds were dispensed into CellBIND 384 well plates to a final concentration of 10 μM. OE19 cells (Sigma) were grown in to 70-90% confluency in RPMI 1640+L-glutamine and […]; were trypsinized to achieve suspension and were aliquoted at 2,500 cells/well, total well volume 50 μl. Plates were incubated 72 hr at 37° C. in 5% CO2; supernatant was removed and plates were dried, heat-sealed and stored at −20° C. until analysis.
For IC50 determinations, the same procedure was followed except that test compounds were added to the plate as dose-downs in triplicate to yield concentration response curves.
Mass Spectrometer Analysis of Sulfatide (SFT):
Assay plates were thawed and 85 μl mobile phase B (5 mM ammonium formate^+0.2% formic acid in 50:50 methanol:acetonitrile). Fifteen μl 20 ng/ml C17 SFT in mobile phase B was added as an internal standard.
SFT was analyzed using an Applied Biosystems API-4000 triple quad mass spectrometer interfaced to a Thermo Scientific Multiplex system (LX-4) equipped with four pumps. Chromatography of OE19 cell samples or 2B5-mouse cells treated with compounds was performed using a Waters Acquity UPLC BEH C8 2.1×50 mm column with 1.7 um particle size. The chromatography was performed using the following mobile phases. Mobile phase A (MPA): 0.2% formic acid and 5 mM ammonium formate in deionized water; MPB: see above. The LC method was run in isocratic mode for 4 sequentially running columns using 95% MPB and 5% MPA with flow rate of 1 ml/min and a column temperature of 60° C.
The Triple quad mass spectrometer was run in Negative Ionization mode monitoring the following MRM transitions and using the following parameters:
Electrospray voltage was […], and source temperature was 550° C.

IC50 [nM] | Compound
> 1000 | CNC(=O)c1csc2c(C(F)(F)F)cc(N3CCN(CC4CN(C(C)C)CCO4)CC3)nc12 (stereo not drawn) [Example 552, 5-(4-((4-Isopropylmorpholin-2-yl)methyl)piperazin-1-yl)-N-methyl-7-(trifluoromethyl)thieno[3,2-b]pyridine-3-carboxamide trifluoroacetate]
100 to 1000 | CNC(=O)c1csc2c(C(F)(F)F)c(C)c(N3CCN(CC(=O)NC(C)C)CC3)nc12 [Example 47, 5-(4-(2-(Isopropylamino)-2-oxoethyl)piperazin-1-yl)-N,6-dimethyl-7-(trifluoromethyl)thieno[3,2-b]pyridine-3-carboxamide]
< 100 | CNC(=O)c1csc2c(C(F)(F)F)cc(O[C@@H]3CCN(C(=O)OC(C)(C)C)[C@H](C)C3)nc12 [Example 373, tert-Butyl (2R,4R)-2-methyl-4-((3-(methylcarbamoyl)-7-(trifluoromethyl)thieno[3,2-b]pyridin-5-yl)oxy)piperidine-1-carboxylate]
100 to 1000 | CNC(=O)c1csc2c(C(F)(F)F)cc(O[C@@H]3CCN(C(=O)OC(C)(C)C)[C@@H](C)C3)nc12 (racemic) [Example 368, (+/−)-tert-Butyl trans-2-methyl-4-((3-(methylcarbamoyl)-7-(trifluoromethyl)thieno[3,2-b]pyridin-5-yl)oxy)piperidine-1-carboxylate]
< 100 | CNC(=O)c1csc2c(C(F)(F)F)c(C)c(O[C@H]3CCN(C(=O)O[C@@H](C)COC(F)(F)F)C[C@H]3F)nc12 [Example 183, (S)-1-(Trifluoromethoxy)propan-2-yl (3R,4S)-3-fluoro-4-((6-methyl-3-(methylcarbamoyl)-7-(trifluoromethyl)thieno[3,2-b]pyridin-5-yl)oxy)piperidine-1-carboxylate]
< 100 | CNC(=O)c1csc2c(C(F)(F)F)cc(N3CCC(OC(=O)N4CCC4)CC3)nc12 [Example 60, 1-(3-(Methylcarbamoyl)-7-(trifluoromethyl)thieno[3,2-b]pyridin-5-yl)piperidin-4-yl azetidine-1-carboxylate]
< 100 | CNC(=O)c1csc2c(C(F)(F)F)cc(N3CC(NC(=O)OC(C)(C)C)C3)nc12 [Example 300, tert-Butyl (1-(3-(methylcarbamoyl)-7-(trifluoromethyl)thieno[3,2-b]pyridin-5-yl)azetidin-3-yl)carbamate]
< 100 | CNC(=O)c1csc2c(C(F)(F)F)c(C)c(O[C@@H]3CCN(C(=O)O[C@@H](C)C4CC4)[C@H](C)C3)nc12 [Example 866, (S)-1-Cyclopropylethyl (2R,4R)-2-methyl-4-((6-methyl-3-(methylcarbamoyl)-7-(trifluoromethyl)thieno[3,2-b]pyridin-5-yl)oxy)piperidine-1-carboxylate]
< 100 | CNC(=O)c1csc2c(C(F)(F)F)cc(N3CCC(OC(=O)N4C[C@@H](N(C)C)[C@@H]4C)CC3)nc12 [Example 794, 1-(3-(Methylcarbamoyl)-7-(trifluoromethyl)thieno[3,2-b]pyridin-5-yl)piperidin-4-yl (2S,3R)-3-(dimethylamino)-2-methylazetidine-1-carboxylate]
< 100 | CNC(=O)c1csc2c(C(F)(F)F)cc(N3CCC(OC(=O)NC(C)CF)CC3)nc12 (racemic) [Example 671, [1-[3-(Methylcarbamoyl)-7-(trifluoromethyl)thieno[3,2-b]pyridin-5-yl]-4-piperidyl] N-(2-fluoro-1-methyl-ethyl)carbamate]
< 100 | CNC(=O)c1csc2c(C(F)(F)F)cc(O[C@@H]3CCN(C(=O)O[C@@H](C)COC(F)(F)F)[C@H](C)C3)nc12 [Example 175, (S)-1-(Trifluoromethoxy)propan-2-yl (2R,4R)-2-methyl-4-((3-(methylcarbamoyl)-7-(trifluoromethyl)thieno[3,2-b]pyridin-5-yl)oxy)piperidine-1-carboxylate]
< 100 | CNC(=O)c1csc2c(C(F)(F)F)cc(N3CCC(OC(=O)NC(C)C(F)F)CC3)nc12 (stereo not drawn) [Example 670, [1-[3-(Methylcarbamoyl)-7-(trifluoromethyl)thieno[3,2-b]pyridin-5-yl]-4-piperidyl] N-(2,2-difluoro-1-methyl-ethyl)carbamate]
< 100 | COC(=O)c1csc2c(C(F)(F)F)cc(N3CCN(CC(=O)NC(C)C)CC3)nc12 [Example 10, Methyl 5-(4-(2-(isopropylamino)-2-oxoethyl)piperazin-1-yl)-7-(trifluoromethyl)thieno[3,2-b]pyridine-3-carboxylate]
100 to 1000 | CNC(=O)c1csc2c(C(F)(F)F)cc(CC3CCN(C(=O)OC(C)(C)C)CC3)nc12 [Example 634, tert-Butyl 4-((3-(methylcarbamoyl)-7-(trifluoromethyl)thieno[3,2-b]pyridin-5-yl)methyl)piperidine-1-carboxylate]
< 100 | CNC(=O)c1csc2c(C(F)(F)F)cc(O[C@@H]3CCN(C(=O)OC(C)(C)C)[C@H](C)C3)nc12 (racemic) [Example 370, (+/−)-tert-Butyl cis-2-methyl-4-((3-(methylcarbamoyl)-7-(trifluoromethyl)thieno[3,2-b]pyridin-5-yl)oxy)piperidine-1-carboxylate]
< 100 | CNC(=O)c1csc2c(C(F)(F)F)c(Cl)c(N3CCC(OC(=O)NCC4CC4)CC3)nc12 [Example 638, [1-[6-Chloro-3-(methylcarbamoyl)-7-(trifluoromethyl)thieno[3,2-b]pyridin-5-yl]-4-piperidyl] N-(cyclopropylmethyl)carbamate]
< 100 | CNC(=O)c1csc2c(C(F)(F)F)c(C)c(O[C@@H]3CCN(C(=O)OCCOC(F)(F)F)C[C@@H]3F)nc12 [Example 180, 2-(Trifluoromethoxy)ethyl (3S,4R)-3-fluoro-4-((6-methyl-3-(methylcarbamoyl)-7-(trifluoromethyl)thieno[3,2-b]pyridin-5-yl)oxy)piperidine-1-carboxylate]
100 to 1000 | CNC(=O)c1c(OC)sc2c(C(F)(F)F)c(Cl)c(N3CCN(CC(=O)NC(C)C)CC3)nc12 [Example 637, 6-Chloro-5-[4-[2-(isopropylamino)-2-oxo-ethyl]piperazin-1-yl]-2-methoxy-N-methyl-7-(trifluoromethyl)thieno[3,2-b]pyridine-3-carboxamide]
< 100 | CNC(=O)c1csc2c(C(F)(F)F)cc(N3CCC(NC(=O)OCCC#N)CC3)nc12 [Example 505, 2-Cyanoethyl (1-(3-(methylcarbamoyl)-7-(trifluoromethyl)thieno[3,2-b]pyridin-5-yl)piperidin-4-yl)carbamate]
< 100 | CNC(=O)c1csc2c(C(F)F)cc(N3CCC(OC(=O)NC(C)C)CC3)nc12 [Example 452, 1-(7-(Difluoromethyl)-3-(methylcarbamoyl)thieno[3,2-b]pyridin-5-yl)piperidin-4-yl isopropylcarbamate]
< 100 | CNC(=O)c1csc2c(Cl)cc(N3CCC(OC(=O)NCC4CC4)CC3)nc12 [Example 449, 1-(7-Chloro-3-(methylcarbamoyl)thieno[3,2-b]pyridin-5-yl)piperidin-4-yl (cyclopropylmethyl)carbamate]
100 to 1000 | CNC(=O)c1csc2c(C(F)(F)F)cc(OC3CCN(C(=O)OC4CN(C)CC4F)CC3)nc12 (stereo not drawn) [Example 835, 4-Fluoro-1-methylpyrrolidin-3-yl 4-((3-(methylcarbamoyl)-7-(trifluoromethyl)thieno[3,2-b]pyridin-5-yl)oxy)piperidine-1-carboxylate]
100 to 1000 | CNC(=O)c1csc2c(C(F)(F)F)cc(OC3CCN(C(=O)OC(C)(C)C)C3)nc12 (stereo not drawn) [Example 589, tert-Butyl 3-((3-(methylcarbamoyl)-7-(trifluoromethyl)thieno[3,2-b]pyridin-5-yl)oxy)pyrrolidine-1-carboxylate]

Compound | IC50 [nM]
CNC(=O)c1csc2c(C(F)(F)F)cc(C3CC4(C3)CN(C(=O)OC(C)(C)C)C4)nc12 [Example 574, tert-Butyl 6-(3-(methylcarbamoyl)-7-(trifluoromethyl)thieno[3,2-b]pyridin-5-yl)-2-azaspiro[3.3]heptane-2-carboxylate] | < 100
